Results on 18 compounds are retold here after patent publication US12637468B2, “Substituted [1,2,4]triazolo[4,3-b]pyridazines as GABAA receptor modulators” (SHANGHAI SIMR BIOTECHNOLOGY CO., LTD., priority 2019, dated 2026).

As a reminder, the solubility (thermodynamic) is solubility found after equilibrating the solid with the medium. In general, Kp refers to the ratio of the level in a tissue or fluid to that in plasma or blood.

Values after ≈ are worked out from the molar mass of the structure shown.

For data set [1], the target named is T1, α5-GABAA receptor (Homo sapiens, UniProt P18507+P31644).
T1 construct: expressed in transfected cells; host or cells: HEK293, monoclonal stably transfected line
T1 sequence (P31644 32-462): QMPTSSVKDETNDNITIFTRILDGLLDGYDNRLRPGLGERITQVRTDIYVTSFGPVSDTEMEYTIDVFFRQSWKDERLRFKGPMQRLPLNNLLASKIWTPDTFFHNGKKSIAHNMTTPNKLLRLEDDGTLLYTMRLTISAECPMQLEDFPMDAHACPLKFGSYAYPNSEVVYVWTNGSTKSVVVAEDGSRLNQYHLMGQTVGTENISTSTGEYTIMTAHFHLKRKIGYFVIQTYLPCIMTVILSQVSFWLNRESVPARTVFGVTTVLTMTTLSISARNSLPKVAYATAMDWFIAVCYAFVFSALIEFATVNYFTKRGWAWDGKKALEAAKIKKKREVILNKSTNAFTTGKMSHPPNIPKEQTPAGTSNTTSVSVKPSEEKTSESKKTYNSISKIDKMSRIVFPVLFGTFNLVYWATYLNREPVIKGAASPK
T1 sequence (P28472 26-473 partner): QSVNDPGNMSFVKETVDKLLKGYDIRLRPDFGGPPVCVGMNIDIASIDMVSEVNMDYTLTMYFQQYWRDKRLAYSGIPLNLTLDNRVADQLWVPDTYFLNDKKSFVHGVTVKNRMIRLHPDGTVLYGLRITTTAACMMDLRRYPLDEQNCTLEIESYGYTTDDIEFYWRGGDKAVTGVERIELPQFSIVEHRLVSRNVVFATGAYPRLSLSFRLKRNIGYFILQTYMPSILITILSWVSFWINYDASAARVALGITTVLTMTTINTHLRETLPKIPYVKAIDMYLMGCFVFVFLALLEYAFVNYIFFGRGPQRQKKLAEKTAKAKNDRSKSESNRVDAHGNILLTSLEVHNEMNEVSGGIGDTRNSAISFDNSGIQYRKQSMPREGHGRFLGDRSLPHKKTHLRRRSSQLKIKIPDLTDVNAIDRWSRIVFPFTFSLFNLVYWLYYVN
T1 sequence (P18507 40-467 isoform P18507-1 limits assumed): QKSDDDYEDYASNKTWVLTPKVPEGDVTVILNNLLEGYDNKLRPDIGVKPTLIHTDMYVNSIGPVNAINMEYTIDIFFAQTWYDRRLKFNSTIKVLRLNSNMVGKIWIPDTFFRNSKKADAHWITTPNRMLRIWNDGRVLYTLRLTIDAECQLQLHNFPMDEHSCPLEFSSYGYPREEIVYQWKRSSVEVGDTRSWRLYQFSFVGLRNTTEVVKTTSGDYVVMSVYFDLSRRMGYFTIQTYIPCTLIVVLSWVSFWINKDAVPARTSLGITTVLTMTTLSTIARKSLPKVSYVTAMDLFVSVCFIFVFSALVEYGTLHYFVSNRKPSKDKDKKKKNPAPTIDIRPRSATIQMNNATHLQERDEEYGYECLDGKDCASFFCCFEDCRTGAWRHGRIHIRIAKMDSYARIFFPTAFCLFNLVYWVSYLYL
In words: Cell-level screening: whole cell patch clamp, inverse agonist efficacy on α5-GABAA receptor expressed in HEK293. The data set is classed as cell-based. As to conditions: drug 100 nM, GABA 0.05 μM, HEK293 expressing α5, β3 and γ2 subunits, clamped at −60 mV; read-out: Compound inverse agonist efficacy %. In short, it runs like this:
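Whole-cell patch clamp at −60 mV on HEK293 stably expressing α5β3γ2, pH 7.4 extracellular/CsCl internal solutions. Current evoked by 0.05 μM GABA, then compound in GABA solution; screening at 100 nM, dose-response 0.3–300 nM. Inverse agonist efficacy as % change of GABA current.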
In general terms: Patch clamp records ionic current or voltage across a cell membrane.

Data set [2] is described as follows: Thermodynamic solubility in simulated intestinal fluid (TS in FaSSIF). Format: physicochemical. The conditions noted are these: thermodynamic from solid, 37° C. Summed up:
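About 0.3 mg solid shaken in 1.5 mL FaSSIF-V2 at 1000 rpm, 37° C, 4 hours, in duplicate, then filtered. Filtrate quantified by HPLC-UV against 1 μM-200 μM standards diluted from 10 mM DMSO stock.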

Data set [3] can be described thus: Water solubility observed on extraction work-up. Format: physicochemical. The conditions noted are these: observed on extraction with ethyl acetate at pH=7. The protocol:
Methyl 6-[7-methoxy-3-(5-methyl-isoxazol-3-yl)-[1,2,4]triazolo[4,3-b]pyridazin-6-yloxymethyl]-nicotinate (300 mg, 0.75 mmol), 1M lithium hydroxide (1.5 mL, 1.5 mmol) were sequentially added to 10 mL of ethanol, and the mixture was stirred at room temperature for 1 hour. The mixture was added with 0.5 M hydrochloric acid to neutralize to pH=7, diluted with water, extracted with ethyl acetate. […] LC-MS: m/z [M+H]^+=383.

Data set [4] can be described thus: Rat liver microsome stability (RLM) experiment. Format: in vitro ADME. As to conditions: rat liver microsomal stability. Here is the method:
Effect embodiment 3 Rat liver microsome stability (RLM) experiment
Rat liver microsomes (Xenotech, item No. R1000, lot No. 1310030), 100 mM potassium phosphate buffer solution (pH 7.4), 10 mM magnesium chloride.
Compound preparation: 5 μL of compound DMSO mother liquor (10 mM) was added to 495 μL of methanol to obtain an intermediate solution with a compound concentration of 100 μM. Then 50 μL of the intermediate solution was taken and dissolved in 450 μL of potassium phosphate buffer solution to obtain a test solution with a final concentration of 10 μM.
NADPH regeneration system (concentration of isocitrate dehydrogenase 1 unit/mL).
Liver microsomes (final concentration 0.5 mg protein/mL).
Reaction termination solution: cold acetonitrile containing 100 ng/mL Tolbutamide and 100 ng/mL Labetalol as an internal standard.
• (1) Preparation of buffer solution: • Buffer solution A: 1.0 L of 0.1 M potassium phosphate buffer solution containing 1.0 mM EDTA • Buffer solution B: 1.0 L of 0.1 M dipotassium phosphate buffer solution containing 1.0 mM EDTA • Buffer solution C: 0.1 M potassium phosphate buffer, 1.0 mM EDTA, pH 7.4, titrated with 700 mL of buffer solution B and buffer solution A, monitored by pH meter. • (2) Preparation of reference substance (ketanserin) and concentration of administration solution of the test substance:
[…]: […] 10 mM DMSO reference substance stock solution and test substance stock solution were added to 190 μL of ACN, respectively. 1.5 μM administration solution (containing 0.75 mg/mL liver microsomes): […] administration solution and 18.75 μL of 20 mg/mL liver microsomes were added to 479.75 μL of buffer C on a wet ice. • (3) NADPH was added to buffer solution C to obtain a NADPH stock solution (6 mM). • (4) 30 μL of 1.5 μM administration solution (containing 0.75 mg/mL of liver microsomes) was taken on the wet ice and added to the wells of the test plate at different time points (0-, 5-, 15-, 30-, 45-min), respectively. • (5) Firstly, 135 μL of ACN containing IS was added to the wells of a 0 min test plate, and then 15 μL of the NADPH stock solution (6 mM) was added. • (6) The test plate at other time points and the NADPH stock solution were pre-heated in a 37° C. water bath for 5 minutes. • (7) 15 μL of the NADPH stock solution (6 mM) was taken and added to a pre-incubated test plate, and the reaction was started and timed. • (8) At 5 min, 15 min, 30 min and 45 min, 135 μL of CAN containing IS was added to the corresponding test plate respectively, and the test was completed. • (9) Test plates were shaken with a shaker (IKA, MTS 2/4) for 10 min (600 rpm/min) and then centrifuged for 15 min (Thermo Multifuge×3R, 5594 g). • (10) 50 μL of supernatant from each well was added to a 96-well sample plate containing 50 μL of ultrapure water (Millipore, ZMQS50F01), and the samples were analyzed by LC/MS.
(Liver microsomes are a subcellular fraction often used to study metabolism.)

Data set [5] is described as follows: Pharmacokinetic experiment on rats: brain entry ratio (brain tissue/plasma concentration ratio). Format: in vivo. As to conditions: rat, male SD rats, po 10 mg/kg. The protocol:
The drug concentration ratio of plasma and brain tissue in the pharmacokinetic experiment on rats was used to evaluate the entry of compounds into brain. All rats fasted overnight before administration; the test compounds were dissolved and administered orally (po) to male SD rats, with 3 rats in each group. After administration of the test compounds, blood was collected by jugular vein puncture at 0.5 hours with about 0.25 mL per sample. The whole brain was taken at the same time. The plasma and brain tissue drug concentration were determined by LC-MS/MS method, and the pharmacokinetic parameters were calculated by Phoenix WinNonlin7.0. The dosage was 10 mg/kg, and the vehicle was 5% CMC-Na aqueous solution.

In data set [6] the test system is α5-GABAA receptor. The conditions noted are these: cited from earlier work.
Data set [7] concerns α5-GABAA receptor. As to conditions: in vivo; cited from earlier work.
For data set [8], the system named is α5-GABAA receptor. The conditions noted are these: in vivo; cited from earlier work. The source holds these as a separate data set.
The nature of data set [9]: Thermodynamic solubility in phosphate buffer solution (TS in PBS). Format: physicochemical. The conditions noted are these: aqueous buffer, thermodynamic from solid, 50 mM phosphate buffer solution pH 7.4, shaken at room temperature for 24 hours. Here is the method: 50 mM phosphate buffer solution pH=7.4:0.39 g of NaH2PO4·2H2O, and 1.4025 g of Na2HPO4 were weighted and placed in an erlenmeyer flask, then 240 mL of water was added thereto. The solid was dissolved and mixed thoroughly, and the pH value was adjusted to 7.4 with 10M NaOH solution, and the resulting solution was transferred to a 250 mL volumetric flask, followed by dilution to scale with water.
Waters e2695 HPLC high performance liquid chromatography, Mettler XSE105 analytical balance.
Firstly, a 10 mM stock solution was prepared with DMSO, and was diluted with a diluent (ACN: PB buffer 50:50) into 1 μM-200 μM as a standard solution.
Thermodynamic solubility in phosphate buffer solution (TS in PBS). 1 mg of the sample was weighed, and 1.5 mL of 50 mM phosphate buffer solution (pH 7.4) was added thereto, then the mixture was shaken at room temperature for 24 hours to ensure that the sample was saturated, and filtered. The filtrate was detected with the high performance liquid chromatograph (UV). The compounds of the present disclosure and comparative compounds are tested by this method, and the results are shown in Table 3 below: […]

The nature of data set [10]: Pharmacokinetic experiment on rats: maximum plasma drug concentration (Cmax). The data set is classed as in vivo, rat. As to conditions: male SD rats, po, 10 mg/kg, vehicle 5% CMC-Na aqueous solution. Here is the method:
In the pharmacokinetic experiment on rats, the maximum plasma drug concentration (Cmax) was used to evaluate the absorption of the compounds in rats. All rats fasted overnight before administration; the test compounds were dissolved and administered orally (po) to male SD rats, with 3 rats in each group. After administration of the test compounds, blood was collected by jugular vein puncture at […] with about 0.25 mL per sample. The plasma drug concentration was determined by LC-MS/MS method, and the pharmacokinetic parameters were calculated by Phoenix WinNonlin7.0. The dosage was 10 mg/kg, and the vehicle was 5% CMC-Na aqueous solution.

[11] abbreviates: Table 4, 0.5 mg protein/mL, NADPH, 37° C., 0-45 min.
The mark [12] stands for this setting: Table 5, compounds of the disclosure and comparative compounds.

Consider `COc1cc2nnc(-c3cc(C)on3)n2nc1OCc1ccc(C(=O)O)cn1` [Embodiment 63, 6-(((7-Methoxy-3-(5-methylisoxazol-3-yl)-[1,2,4]triazolo[4,3-b]pyridazin-6-yl)oxy)methyl)nicotinate], for which the inhibition at 0.1 µM at α5-GABAA receptor [1] came out at 24.2%. The thermodynamic solubility at 4 h in data set [2] was 307 µg/mL (≈ 803 µM). Also, in data set [3], the water solubility entry is recorded as “good water solubility”.
Turning to `COc1cc2nnc(-c3cc(C)on3)n2nc1OCc1ccc2c(n1)CCN(C1CCOC1)C2` (stereo not drawn) [Embodiment 183], the inhibition at 0.1 µM on α5-GABAA receptor [1] amounted to 55.8%. Also, in data set [4] (setting [11]), the RLM was 5 µL/min/mg. Besides, the partition ratio (Kp) at 0.5 h in [5] (Table 7) is 0.0183.
Turning to `COc1cc2nnc(-c3cc(C)on3)n2nc1OCc1ccc2nc(C#N)cn2n1` [Embodiment 211, 6-(((7-Methoxy-3-(5-methylisoxazol-3-yl)-[1,2,4]triazolo[4,3-b]pyridazin-6-yl)oxy)methyl)imidazo[1,2-b]pyridazine-2-carbonitrile], the inhibition at 0.1 µM at α5-GABAA receptor [1] was determined as 64.7%. Besides, in data set [4] (setting [11]), the RLM worked out at 5 µL/min/mg. Further, the Kp at 0.5 h in data set [5] (Table 7) amounted to 0.018.
For `CCOC(=O)c1ncn2c1[C@@H]1CCCN1C(=O)c1cc(OC)ccc1-2` [L-655,708], the “suppression of the current” value with α5-GABAA receptor [6] (GABA 1 μM, highest concentration of L-655,708) is 15%. For the same compound, the “inhibition of the current induced by low concentrations of GABA” value in the data set with α5-GABAA receptor [6] (GABA 5, 50 and 500 nM) is given as “dose-dependently inhibited”. In addition, the “inhibitory effect on the current induced by GABA” value with α5-GABAA receptor [6] (GABA concentration increased above 1 μM) is reported as “no inhibitory effect”.
On to `Cn1ncnc1COc1nn2c(-c3cc(CO)on3)nncc2c1C(C)(C)C` [MRK016-M3], for which the “inhibition of (3H)RO-15-1788 binding in the central nervous system” value in the data set with α5-GABAA receptor [7] was “hardly inhibit”.
On to `Cc1cc(-c2nncc3c(C(C)(C)C)c(OCc4ncnn4C)nn23)no1` [MRK-016], for which the “inhibition of (3H)RO-15-1788 binding in the central nervous system” value in the data set with α5-GABAA receptor [7] is “effectively inhibit”. For the same compound, in the data set on α5-GABAA receptor [8], the “therapeutic effects on the treatment of cognition related diseases in animal models” value is given as “good therapeutic effects”.
Regarding `COc1cc2nnc(-c3cc(C)on3)n2nc1OCc1ccccn1` [drawing 916], the thermodynamic solubility at 24 h in [9] stood at 20.1 µg/mL (≈ 59.4 µM).
For the compound `Cc1cc(-c2nnc3c4ccccc4c(OCc4ccccn4)nn23)no1` [drawing 917], the solubility (thermodynamic) at 24 h in data set [9] worked out at 0.3 µg/mL (≈ 0.837 µM).
Same read-out and setting: in the case of `Cc1cc(-c2nnc3cc(C(C)(C)C)c(OCc4ccccn4)nn23)no1` [drawing 918] it was 2.6 µg/mL (≈ 7.13 µM).
On the same count and under the same terms, then `CCNC(=O)c1ccc(COc2nn3c(-c4cc(C)on4)nnc3cc2OC)nc1` [drawing 919], with 14.2 µg/mL (≈ 34.7 µM).
Compound `CCNC(=O)c1ccc(COc2nn3c(-c4cc(C)on4)nnc3c3ccccc23)nc1` [drawing 920] yielded a solubility (thermodynamic) at 24 h in data set [9] of 0.8 µg/mL (≈ 1.86 µM).
Same read-out and setting: in the case of `CCNC(=O)c1ccc(COc2nn3c(-c4cc(C)on4)nnc3cc2C(C)(C)C)nc1` [drawing 921] it was 2.5 µg/mL (≈ 5.74 µM).
For `CCNC(=O)c1ccc(COc2nn3c(-c4cc(C)on4)nnc3c3ccccc23)nc1` [drawing 926, reference compound], in [4] (setting [12]), the RLM came out at 26 µL/min/mg.
Same read-out and setting: in the case of `CCNC(=O)c1ccc(COc2nn3c(-c4cc(C)on4)nnc3cc2C(C)(C)C)nc1` [drawing 927, reference compound] it was 142.6 µL/min/mg.
Take `COc1cc2nnc(-c3cc(C)on3)n2nc1OCc1ccccn1` [drawing 928]: the “Maximum plasma drug concentration” value in data set [10] turned out to be 1778 ng/mL. The Kp at 0.5 h in [5] (Table 6) was 0.07.
For `Cc1cc(-c2nnc3c4ccccc4c(OCc4ccccn4)nn23)no1` [drawing 929, reference compound], the “Maximum plasma drug concentration” value in data set [10] stood at 25.7 ng/ mL ng/mL. Besides, the Kp at 0.5 h in data set [5] (Table 6) is 1.51.
On the same counts, the results for `Cc1cc(-c2nnc3cc(C(C)(C)C)c(OCc4ccccn4)nn23)no1` [drawing 930, reference compound] are 216 ng/mL and 0.651.
As to `Cc1cc(-c2nnc3c4ccccc4c(OCc4cn(C)nn4)nn23)no1` [α5IA], the “therapeutic effects on the treatment of cognition related diseases in animal models” value with α5-GABAA receptor [8] is reported as “good therapeutic effects”.
